# Reference: US9023789B2, “Amylin analogs and pharmaceutical compositions thereof” (Novo Nordisk A/S, priority 2012, dated 2015)
# Numbered stars: 1 amine (or outer) side, 2 acyl side, 3 side chain; on linkers, the order of the positions; unused ones are H or OH. Bridge positions count the residues as written; N and C are the ends. Side chains are listed from the residue outwards. Peptide text beside a SMILES is read from it. * marks the point of attachment. C20 diacid = O=C(O)CCCCCCCCCCCCCCCCCCC(=O)*; γGlu = O=C(O)[C@H](CCC(=O)[*:2])N[*:1]
# Columns and labels:
# [1] = target: T1, human amylin 3(a) receptor (human calcitonin receptor + RAMP-3) in BHK570 cells (Homo sapiens, UniProt O60896+P30988); assay: ASSAY (II)a functional assay, human amylin receptor (CRE luciferase); type: cell-based
# T1 construct: expressed in transfected cells
# Outline: (§1)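 BHK cells stably carrying a CRE-luciferase reporter plus calcitonin receptor, or calcitonin receptor with RAMP-3 for the amylin 3(a) receptor, were seeded and kept overnight at 37° C. Compounds were added in assay medium with 10% FBS and 10 mM Hepes, pH 7.4, for 3 hours at 37° C, then luminescence was counted.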
# [2] = target: T2, human calcitonin (a) receptor in BHK570 cells (Homo sapiens, UniProt P30988); assay: ASSAY (II)a functional assay, human calcitonin receptor (CRE luciferase); type: cell-based; details: read-out: hCTR funct. EC50
# T2 construct: expressed in transfected cells
# T2 sequence (P30988 25-474): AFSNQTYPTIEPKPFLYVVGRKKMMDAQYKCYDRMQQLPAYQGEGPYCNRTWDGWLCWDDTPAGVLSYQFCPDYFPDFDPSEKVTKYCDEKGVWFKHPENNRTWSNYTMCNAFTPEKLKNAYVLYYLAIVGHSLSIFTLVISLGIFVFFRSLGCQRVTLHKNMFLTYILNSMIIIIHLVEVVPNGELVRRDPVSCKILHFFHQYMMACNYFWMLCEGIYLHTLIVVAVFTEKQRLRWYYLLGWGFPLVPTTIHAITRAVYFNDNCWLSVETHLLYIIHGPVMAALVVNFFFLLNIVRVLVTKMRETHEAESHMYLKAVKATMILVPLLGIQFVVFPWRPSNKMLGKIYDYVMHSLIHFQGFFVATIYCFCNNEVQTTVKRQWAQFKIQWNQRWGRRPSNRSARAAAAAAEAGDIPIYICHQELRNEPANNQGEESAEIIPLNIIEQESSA
# Outline: as §1
# [3] = target: T3, human amylin receptor (membranes from Amylin 3(a)/CRE-luc cells) (Homo sapiens, UniProt O60896+P30988); assay: ASSAY (V) binding to the human amylin receptor (SPA, 125I-rat amylin);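 further: competition binding of cell membranes (35 ng/µL) mixed with SPA beads in 384-well plates at 40 µL total volume, read by scintillation counting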
# T3 construct: expressed in transfected cells
# T3 sequence (P30988 25-474): T2 sequence (P30988 25-474)
# T3 sequence (O60896 24-148 partner): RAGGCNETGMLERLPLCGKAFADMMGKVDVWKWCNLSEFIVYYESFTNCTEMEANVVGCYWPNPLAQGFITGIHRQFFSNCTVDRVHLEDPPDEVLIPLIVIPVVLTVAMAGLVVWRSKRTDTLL
# [4] = target: T4, human calcitonin receptor (Homo sapiens, UniProt P30988); assay: ASSAY (VII) binding to the human calcitonin receptor (SPA, 125I-Calcitonin); details: read-out: hCTR bind IC50;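 further: cell membranes (35 ng/µL) combined with SPA beads in 40 µL of pH 7.4 Hepes buffer, 384-well format, signal counted on a TopCounter instrument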
# T4 construct: expressed in transfected cells
# T4 sequence (P30988 25-474): T2 sequence (P30988 25-474)
# [5] = ASSAY (IX) pK, determination of T½ in mini-pig; type: in vivo; details: male, Göttingen, minipig, plasma, iv, 2 nmol/kg
# [6] = ASSAY (X) pK, determination of T½ in rat; type: in vivo; details: male, Sprague Dawley, plasma, iv, 20 nmol/kg
# [7] = tested on: Male Sprague-Dawley rats; assay: ASSAY (XI) single subcutaneous administration, food intake monitored for 48 hours in rats; type: in vivo, rat; details: 30 nmol/kg
# Outline: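 Male Sprague-Dawley rats from Taconic Europe, weighing about 250 g on the test day, were singly housed in an online food intake monitoring system (Ellegaard MBRose, Denmark). Before the study they were acclimatized to a reversed light cycle, with lights on from 10 PM to 10 AM. Each rat then received one subcutaneous dose of the analogue, and data are reported as mean±SEM.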
# [8] = tested on: Male Wistar rats; assay: ASSAY (XII) effect from single subcutaneous administration on plasma calcium in rats; type: in vivo, rat; details: single s.c., 30 nmol/kg, 0-12 h, compared to vehicle
# Outline: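 Male Wistar rats (~250 g), groups of five, received a single subcutaneous dose at time 0. Blood drawn at −15 min, 1, 2, 4, 7, 12 and 24 h; total calcium measured in heparin plasma, reported as mean±SEM.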
smiles,measurement,setting,value
CC[C@H](C)[C@H](NC(=O)[C@H](C)NC(=O)CNC(=O)[C@H](Cc1ccccc1)NC(=O)[C@H](CC(N)=O)NC(=O)[C@@H]1CCCN1C(=O)[C@H](CO)NC(=O)[C@H](CO)NC(=O)[C@H](Cc1c[nH]cn1)NC(=O)[C@H](CCCNC(=N)N)NC(=O)[C@H](CC(C)C)NC(=O)[C@H](Cc1ccccc1)NC(=O)[C@H](CCC(=O)O)NC(=O)[C@H](C)NC(=O)[C@H](CC(C)C)NC(=O)[C@H](CCCNC(=N)N)NC(=O)[C@H](CCC(N)=O)NC(=O)[C@@H](NC(=O)[C@H](C)NC(=O)[C@@H]1CSSC[C@H](NC(=O)[C@@H](N)CCCCNC(=O)CC[C@H](NC(=O)CC[C@H](NC(=O)CCCCCCCCCCCCCCCCCCC(=O)O)C(=O)O)C(=O)O)C(=O)N[C@@H](CC(N)=O)C(=O)N[C@@H]([C@@H](C)O)C(=O)N[C@@H](C)C(=O)N[C@@H]([C@@H](C)O)C(=O)N1)[C@@H](C)O)C(=O)N1CCC[C@H]1C(=O)N[C@@H](CO)C(=O)N[C@@H](CO)C(=O)N[C@H](C(=O)N[C@@H](CC(N)=O)C(=O)N[C@H](C(=O)NCC(=O)N1CCC[C@H]1C(=O)N[C@@H](CCC(=O)O)C(=O)N[C@H](C(=O)N[C@@H](Cc1ccc(O)cc1)C(N)=O)[C@@H](C)O)C(C)C)[C@@H](C)O [Example 106] (H-K([γGlu-γGlu-C20 diacid])CNTATCATQRLAEFLRHSSPNFGAIPSSTNVGPETY-NH2; disulfide 2-7; N-terminus assumed),Ratio hCT/hAmylin funct.,[1]; hCTR funct. EC50 divided by hAmylin-R funct. EC50,10.5
same,Ratio hCT/hAmylin funct.,[1]; hCTR funct. EC50 over hAmylin-R funct. EC50,10.5
same,EC50,"[1]; human amylin receptor functional potency, assay (II), read-out: hAmylin-R funct. EC50",0.225 nM
same,Ratio hCT/hAmylin funct.,[1]; human functional selectivity: hCTR funct. EC50 / hAmylin-R funct. EC50,10.5
same,EC50,[2],2.36 nM
same,IC50,"[3]; Table 4, read-out: hAmylin-R bind IC50",0.121 nM
same,Ratio hCT/hAmylin binding,"[3]; Table 5, selectivity, hCTR bind IC50 / hAmylin-R bind IC50",17.6
same,Ratio hCT/hAmylin binding,"[3]; Table 5a, selectivity, hCTR bind IC50 / hAmylin-R bind IC50",17.6
same,Ratio hCT/hAmylin binding,"[3]; Table 5b, selectivity, hCTR bind IC50 / hAmylin-R bind IC50",17.6
same,Ratio hCT/hAmylin binding,"[3]; Table 7, human binding selectivity, included for comparison",17.6
same,Ratio hCT/hAmylin binding,"[3]; Table 7a (preferred compounds), human binding selectivity, included for comparison",17.6
same,Ratio hCT/hAmylin binding,[3]; ratio of human calcitonin receptor binding IC50 to human amylin receptor binding IC50,17.6
same,IC50,[4],2.14 nM
same,half-life,[5],49 h
same,half-life,[6],37 h
same,Food intake red (%) 0-24 h,"[7]; single s.c., 0-24 h, compared to vehicle",63%
same,Food intake red (%) 24-48 h,"[7]; single s.c., 24-48 h, compared to vehicle",69%
same,food intake monitored over 48 hours,"[7]; single subcutaneous administration, versus vehicle",reduce food intake
same,Plasma calcium red (%) 0-12 h (maximal),[8],6%
